# Measured values reported in article PMC10606064, “2-Aminothiazole-Flavonoid Hybrid Derivatives Binding to Tau Protein and Responsible for Antitumor Activity in Glioblastoma” (International Journal of Molecular Sciences, 2023).
# What was measured:
# [1] = system: U138 glioblastoma cells; assay: MTT cell viability assay, U138; format: cell-based; settings: Homo sapiens, U138, 72 h, mean ± SEM, read-out: IC50 (metabolic activity)
# Description: Cells harvested from sub-confluent monolayers were seeded at 15,000 cells per mL in a 96-well microtiter plate (Cambridge Technology, Labège, France) and cultured for 24 h under standard conditions. Standard medium was then replaced by fresh medium containing no drugs or compounds at different concentrations. The surviving cells were quantified after 72 h by the MTT assay, according to the manufacturer’s instructions. Briefly, 20 µL of 3-(4,5-diMethylThiazol-2-yl)-2,5diphenyl Tetrazolium bromide (MTT) solution at 5 mg.mL^−1 was added to cells for 3 h at 37 °C. The supernatant was discarded and replaced by 100 µL of dimethyl sulfoxide to dissolve formazan crystals. The absorbance was then read at 600 nm by spectrophotometry. For all concentrations of a given compound, cell viability was expressed as the percentage of the ratio between the mean absorbance of treated cells and the mean absorbance of untreated cells. Three independent experiments were performed, and the data were expressed as percentage of survival (using the untreated cells as 100%) and subjected to statistical analysis (n = 3). The IC50 was calculated using the Chou and Talalay method.
# [2] = system: U87 shTau cells; assay: Mitochondria network analysis (citrate synthase immunofluorescence), U87 shTau; format: cell-based, human; settings: 5 µM
# Description: (§1) For indirect immunofluorescence of mitochondria, 10^4 cells were plated on cover glass and incubated for 24 h with compounds. Cells were then fixed in 4% formaldehyde (in PBS pH 7.4) for 20 min at RT, permeabilized with PBS-Triton X-100 0.5% for 10 min at RT. Immunostaining was carried out overnight at 4 °C with a primary anti-citrate synthase antibody (dilution 1:400 in PBS-BSA 3%; SC390693; SantaCruz Biotechnologies, Heidelberg, Germany). […] Each image was recorded with the CLSM’s spectral mode selecting specific domains of the emission spectrum. The Alexafluor488 and FITC fluorophores were excited at 488 nm with an argon laser, and fluorescence emission was collected between 496 nm and 535 nm. The TRITC fluorophore was excited at 543 nm with a helium–neon laser, and fluorescence was collected between 560 and 620 nm. […]
# (§2) The analyses of mitochondria and microtubule networks were performed using, respectively, the ‘Mitochondria analyzer’ plugin for Fiji v1.54f software and the method described in our earlier work. Briefly, a series of images were transferred to the software and corrected for background fluorescence intensity contribution. Next, the surface of 50 single cells was measured by considering the cell shape as the boundary of labelling of actin or α-tubulin cytoskeletons (respectively for measurement on mitochondria or microtubules). […]
# [3] = system: U87 shCTRL cells; assay: Cell cycle by flow cytometry (propidium iodide), U87 shCTRL; format: cell-based, human; settings: 48 h
# Description: Measurements of cell cycle from DNA content were performed by flow cytometry as described before. Briefly, 4.10^5 cells in exponential growth were seeded in 6-well plates. After 24 h, they were treated with 10 µM of compounds for 48 h. Nocodazole was used as a positive control with a concentration of 1 µM. The trypsinized cells were harvested and then centrifuged (1200 rpm, 5 min, at room temperature). The cell pellet was resuspended in 1 mL of PBS 1× at 4 °C, and then an extra 4 mL of cold PBS was added to wash the pellet. Cells were then centrifuged again (1200 rpm, 5 min, at 4 °C). To fixate the cells, the pellet was resuspended in 100 µL of cold 70% ethanol, then an additional 900 µL was added and cells were incubated for 30 min at −20 °C. After that, 9 mL of cold PBS was added, and cells were centrifuged (2000 rpm, 5 min, at 4 °C) to remove ethanol. The cell pellet was then resuspended in the staining mix containing 50 µg.mL^−1 of propidium iodide (Molecular Probes, Paris, France) and 100 µg.mL^−1 of RNAse A (Sigma-Aldrich, Saint-Quentin-Fallavier, France) in PBS for 20 min at room temperature in darkness. Samples were analyzed on a Beckman–Coulter–Gallios flow cytometer using the Kaluza for Gallios Acquisition v1.0 software. Propidium iodide was excited at 488 nm, and fluorescence was analyzed at 620 nm on channel FL-3. For the analysis, there is considerable overlap between early S phase and G1 and between late S phase and G2/M due to broadening of the distribution caused by variability in the staining of the cells and instrumental variability. Therefore, the percentages of cells in the sub-G1, G1, S, and G2/M phases of the cell cycle were calculated using the Watson et al. algorithm for cell cycle analysis in Kaluza for Gallios Analysis v2.1 software. The software automatically adjusted gates based on PI median fluorescence intensity of the cells and their frequency among total cells. The number of cells in each phase was divided by the total number of analyzed cells, and the values were reported as percentage of the total cells for each cell cycle phase.
# [4] = system: U87 shTau cells; assay: Microtubule network analysis (alpha-tubulin immunofluorescence), U87 shTau; format: cell-based, human; settings: 0–20 µM, 24 h
# Description: as §1, §2
IC50 [1] [nM],SMILES,impact on the mitochondria networks [2],"%G1 (cells in G1 phase) ([3]; compounds 10 µM, NOC 1 µM) [%]","%G2/M (cells in G2/M phase) ([3]; compounds 10 µM, NOC 1 µM) [%]",change of microtubule network [4],effect on cell cycle progression ([3]; 10 µM)
> 100000,Nc1nc2ccc3oc(C(=O)O)cc(=O)c3c2s1 [Compound 5],none of the compounds had an impact,53 ± 4,34 ± 5,no change,–
2300 ± 1000,"Nc1nc2ccc3oc(-c4cccc(Oc5ccccc5)c4)cc(=O)c3c2s1 [Compound 2, 2-amino-7-(3-phenoxyphenyl)-9H-chromeno [6,5-d]thiazol-9-one]",none of the compounds had an impact,–,–,no change,no significant effect on cell cycle progression
